{
  "source": "patent US12215111B2",
  "about": "“Imidazopyridazine IL-17 inhibitor compounds” (Janssen Pharmaceutica NV, priority 2021, dated 2025)",
  "data": [
    {"test_system": "IL-17A-induced G-CSF production in human normal keratinocyte (NHK)", "assay": "NHK assay: IL-17A-induced G-CSF production in normal human keratinocytes", "assay_type": "cell-based", "conditions": "Homo sapiens, Keratinocyte; IL-17A 5 ng/mL, 24 h at 37° C., G-CSF by HTRF; simple average if tested more than once", "description": "IL-17A acts directly on keratinocytes through binding to dimeric receptor IL-17RA/RC and drives the production of a number of inflammatory mediators known to be elevated in psoriasis lesional tissue. IL-17A small molecule inhibitors that block the IL-17A to interact with IL-17R would inhibit the IL-17A signaling in its targeted cells such as keratinocytes. The compound functional activity is evaluated for its impact on IL-17A-induced G-CSF production in human normal keratinocyte (NHK).\nAdult normal human keratinocytes are cultured in keratinocyte growth medium (Lonza) in a flask till reaching ˜90% confluence, then cells are transferred to a 384-well plate at density of 3000-4000 cell/well. Recombinant human IL-17A (Gibco PHC9174) is pre-incubated with titrated compound or DMSO for 1 h at rt then added to the cell culture plate. The final concentration of IL-17A is 5 ng/mL and DMSO is 0.2%, in the culture containing 5% FBS. Cells are cultured/treated for 24 h at 37° C. Supernatants are collected and G-CSF production is measured through HTRF technology using Human G-CSF Kit (CisBio). G-CSF concentration was extrapolated from the standard curve and IC50 is determined using GraphPad Prism. Cell viability is also evaluated using CellTiter-Glo kit (Promega) and effect of compound on cell viability is compared to DMSO control.", "units": {"IC50": "µM"}, "values": [
      {"smiles": "[2H]C1([2H])[C@@H](C(F)(F)F)NC(=O)N1[C@H](COC)c1cnn2cc([C@H](COC(C)(C)C(F)(F)F)NC(=O)c3nonc3C3CC3)nc2c1", "note": "(relative stereo) [Example 16, 4-Cyclopropyl-N—((R)-1-(7-((S)-2-methoxy-1-((S*)-2-oxo-4-(trifluoromethyl)imidazolidin-1-yl-5,5-d2)ethyl)imidazo[1,2-b]pyridazin-2-yl)-2-(1,1,1-trifluoro-2-methylpropan-2-yl)oxy)ethyl)-1,2,5-oxadiazole-3-carboxamide]", "IC50": "< 4"},
      {"smiles": "COC[C@H](c1cnn2cc([C@H](COC(C)(C)C(F)(F)F)NC(=O)[C@@H]3C[C@H]3C(F)(F)F)nc2c1)N1C[C@@H](C(F)(F)F)NC1=O", "note": "(relative stereo) [Example 32, (1R*,2R*)—N—((R)-1-(7-((S)-2-Methoxy-((S)-2-oxo-4-(trifluoromethyl)imidazolidin-1-yl)ethyl)imidazo[1,2-b]pyridazin-2-yl)-2-(1,1,1-trifluoro-2-methylpropan-2-yl)oxy)ethyl)-2-(trifluoromethyl)cyclopropane-1-carboxamide]", "IC50": "< 4"},
      {"smiles": "COC[C@H](c1cnn2cc([C@H](COC(C)(C)C(F)(F)F)NC(=O)c3nonc3C)nc2c1)N1C[C@@](C)(C(F)(F)F)NC1=O", "note": "(single isomer, unassigned) [Example 30]", "IC50": "< 4"},
      {"smiles": "CC(C)n1nccc1C(=O)N[C@H](c1cn2ncc([C@H](COC3CC3)N3C[C@@H](C(F)(F)F)NC3=O)cc2n1)C1CCC(F)(F)CC1", "note": "(single isomer, unassigned) [Example 44]", "IC50": "< 4"},
      {"smiles": "[2H]C1([2H])N([C@H](COC)c2cnn3cc([C@H](COC(C)(C)C(F)(F)F)NC(=O)c4nonc4C4CC4)nc3c2)C(=O)NC1([2H])C(F)(F)F", "note": "(stereo in doubt) [Example 34, 4-Cyclopropyl-N—((R)-1-(7-((S)-2-methoxy-1-((R)-2-oxo-4-(trifluoromethyl)imidazolidin-1-yl-4,5,5-d3)ethyl)imidazo[1,2-b]pyridazin-2-yl)-2-((1,1,1-trifluoro-2-methylpropan-2-yl)oxy)ethyl)-1,2,5-oxadiazole-3-carboxamide]", "IC50": "< 4"},
      {"smiles": "[2H]C1([2H])N([C@H](COC)c2cnn3cc([C@H](COC(C)(C)C(F)(F)F)NC(=O)c4nonc4C)nc3c2)C(=O)NC1([2H])C(F)(F)F", "note": "(stereo in doubt) [Example 35, N—((R)-1-(7-((S)-2-Methoxy-1-((R)-2-oxo-4-(trifluoromethyl)imidazolidin-1-yl-4,5,5-d3)ethyl)imidazo[1,2-b]pyridazin-2-yl)-2-((1,1,1-trifluoro-2-methylpropan-2-yl)oxy)ethyl)-4-methyl-1,2,5-oxadiazole-3-carboxamide]", "IC50": "< 4"},
      {"smiles": "COC[C@H](c1cnn2cc([C@H](CC(C)(C)C(F)(F)F)NC(=O)c3nonc3C3CC3)nc2c1)N1C[C@@H](C(F)(F)F)NC1=O", "note": "[Example 13, 4-Cyclopropyl-N—((S)-4,4,4-trifluoro-1-(7-((S)-2-methoxy-1-((S)-2-oxo-4-(trifluoromethyl)imidazolidin-1-yl)ethyl)imidazo[1,2-b]pyridazin-2-yl)-3,3-dimethylbutyl)-1,2,5-oxadiazole-3-carboxamide]", "IC50": "< 4"},
      {"smiles": "COC[C@H](c1cnn2cc([C@H](CC(C)(C)C(F)(F)F)NC(=O)c3nonc3C)nc2c1)N1C[C@@H](C(F)(F)F)NC1=O", "note": "[Example 14, 4-Methyl-N—((S)-4,4,4-trifluoro-1-(7-((S)-2-methoxy-1-((S)-2-oxo-4-(trifluoromethyl)imidazolidin-1-yl)ethyl)imidazo[1,2-b]pyridazin-2-yl)-3,3-dimethylbutyl)-1,2,5-oxadiazole-3-carboxamide]", "IC50": "< 4"},
      {"smiles": "COC[C@H](c1cnn2cc([C@H](CC(C)(C)C(F)(F)F)NC(=O)c3ccnn3C(C)C)nc2c1)N1C[C@@H](C(F)(F)F)NC1=O", "note": "[Example 15, 1-Isopropyl-N—((S)-4,4,4-trifluoro-1-(7-((S)-2-methoxy-((S)-2-oxo-4-(trifluoromethyl)imidazolidin-1-yl)ethyl)imidazo[1,2-b]pyridazin-2-yl)-3,3-dimethylbutyl)-1H-pyrazole-5-carboxamide]", "IC50": "< 4"}
    ]}
  ]
}
